Assay results published in PMC2634297 (Bioorganic & medicinal chemistry letters, 2008).

How the values were obtained:
BAT5 = BAT5 (Mus musculus, UniProt Q9Z1Q2); assay: biochemical
FAAH = FAAH (Mus musculus, UniProt O08914); assay: biochemical
KIAA1363 = KIAA1363 (Mus musculus, UniProt Q8BLF1); assay: biochemical
PLA2g7 = PLA2g7 (Mus musculus, UniProt Q60963); assay: biochemical
brain serine hydrolases = type: biochemical, mouse
BAT5 (60 kDa hydrolase) = BAT5 (60 kDa hydrolase) (Mus musculus, UniProt Q9Z1Q2); type: biochemical
ABHD12 = ABHD12 (Mus musculus, UniProt Q99LR1); assay: biochemical
Chain of ABHD12 (Q99LR1 whole entry): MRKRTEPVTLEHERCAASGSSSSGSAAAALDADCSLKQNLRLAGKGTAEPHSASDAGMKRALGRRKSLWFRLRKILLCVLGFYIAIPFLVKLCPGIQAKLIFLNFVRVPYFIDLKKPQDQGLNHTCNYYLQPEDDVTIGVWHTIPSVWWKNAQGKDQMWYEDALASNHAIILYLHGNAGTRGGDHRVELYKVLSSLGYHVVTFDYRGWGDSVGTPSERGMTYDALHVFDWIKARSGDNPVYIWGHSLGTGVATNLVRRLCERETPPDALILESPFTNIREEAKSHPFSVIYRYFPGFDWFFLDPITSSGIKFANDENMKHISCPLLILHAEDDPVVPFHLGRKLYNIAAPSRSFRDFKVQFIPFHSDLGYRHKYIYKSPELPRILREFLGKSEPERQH

Chain of BAT5 (Q9Z1Q2 whole entry): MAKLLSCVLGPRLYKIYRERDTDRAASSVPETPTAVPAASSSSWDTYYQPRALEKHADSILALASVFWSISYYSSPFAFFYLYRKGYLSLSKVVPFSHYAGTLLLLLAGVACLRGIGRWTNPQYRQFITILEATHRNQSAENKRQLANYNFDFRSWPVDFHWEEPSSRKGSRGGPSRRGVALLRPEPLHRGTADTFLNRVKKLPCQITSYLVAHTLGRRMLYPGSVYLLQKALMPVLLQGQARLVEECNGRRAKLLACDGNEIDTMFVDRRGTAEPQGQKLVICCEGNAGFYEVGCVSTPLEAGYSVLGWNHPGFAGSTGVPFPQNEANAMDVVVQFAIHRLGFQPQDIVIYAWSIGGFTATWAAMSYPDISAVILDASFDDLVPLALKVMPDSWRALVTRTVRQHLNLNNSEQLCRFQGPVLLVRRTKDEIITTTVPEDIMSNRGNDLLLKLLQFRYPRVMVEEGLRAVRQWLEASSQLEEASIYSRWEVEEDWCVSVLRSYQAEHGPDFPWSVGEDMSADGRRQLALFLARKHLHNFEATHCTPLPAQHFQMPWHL
Chain of PLA2g7 (Q60963 22-440): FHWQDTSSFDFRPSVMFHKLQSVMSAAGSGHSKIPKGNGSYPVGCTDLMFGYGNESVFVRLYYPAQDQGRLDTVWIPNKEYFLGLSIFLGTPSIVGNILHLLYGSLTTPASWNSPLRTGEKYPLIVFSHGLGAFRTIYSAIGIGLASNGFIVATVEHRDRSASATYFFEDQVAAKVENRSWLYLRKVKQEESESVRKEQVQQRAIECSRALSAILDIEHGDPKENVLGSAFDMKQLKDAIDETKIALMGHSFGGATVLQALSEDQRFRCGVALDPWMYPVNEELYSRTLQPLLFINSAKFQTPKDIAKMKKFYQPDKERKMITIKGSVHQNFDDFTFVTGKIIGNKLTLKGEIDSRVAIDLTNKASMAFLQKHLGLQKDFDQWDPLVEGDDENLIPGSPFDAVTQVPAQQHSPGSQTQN
Chain of BAT5 (60 kDa hydrolase) (Q9Z1Q2 whole entry): as the sequence (Q9Z1Q2 whole entry) above
Chain of KIAA1363 (Q8BLF1 whole entry): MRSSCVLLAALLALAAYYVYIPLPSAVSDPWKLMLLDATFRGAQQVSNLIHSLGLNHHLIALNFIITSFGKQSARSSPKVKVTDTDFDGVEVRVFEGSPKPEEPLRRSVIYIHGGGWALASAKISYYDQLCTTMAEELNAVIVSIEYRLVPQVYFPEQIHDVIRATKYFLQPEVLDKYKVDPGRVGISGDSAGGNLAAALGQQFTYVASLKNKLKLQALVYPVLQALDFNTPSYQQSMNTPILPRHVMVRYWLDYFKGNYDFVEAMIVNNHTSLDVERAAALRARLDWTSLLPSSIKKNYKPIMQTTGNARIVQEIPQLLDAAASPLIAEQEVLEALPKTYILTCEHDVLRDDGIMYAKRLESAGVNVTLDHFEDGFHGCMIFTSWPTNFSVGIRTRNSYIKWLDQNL
Chain of FAAH (O08914 whole entry): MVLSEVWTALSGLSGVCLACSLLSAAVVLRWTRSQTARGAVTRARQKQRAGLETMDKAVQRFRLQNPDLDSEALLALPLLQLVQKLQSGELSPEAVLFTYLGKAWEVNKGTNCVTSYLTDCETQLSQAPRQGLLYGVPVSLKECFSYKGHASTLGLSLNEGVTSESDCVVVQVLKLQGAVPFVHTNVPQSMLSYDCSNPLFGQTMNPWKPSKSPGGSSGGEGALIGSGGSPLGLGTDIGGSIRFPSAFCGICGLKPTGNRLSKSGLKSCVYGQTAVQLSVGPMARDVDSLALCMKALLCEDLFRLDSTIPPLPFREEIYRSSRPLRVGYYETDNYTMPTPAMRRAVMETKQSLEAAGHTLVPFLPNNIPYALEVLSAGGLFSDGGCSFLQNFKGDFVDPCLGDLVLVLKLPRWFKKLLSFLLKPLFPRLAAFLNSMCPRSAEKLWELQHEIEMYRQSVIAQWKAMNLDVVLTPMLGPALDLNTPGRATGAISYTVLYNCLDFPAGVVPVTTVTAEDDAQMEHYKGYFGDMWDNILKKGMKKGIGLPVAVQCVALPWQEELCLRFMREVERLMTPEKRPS

SMILES	IC50 (BAT5)	inhibition of recombinant BAT5 (in words) (BAT5)	IC50 (FAAH)	inhibition of recombinant FAAH (in words) (FAAH)	IC50 (KIAA1363)	inhibition of recombinant KIAA1363 (in words) (KIAA1363)	IC50 (PLA2g7)	inhibition of recombinant PLA2g7 (in words) (PLA2g7)	number of hydrolase activities whose labeling is blocked (brain serine hydrolases)	sensitivity of 60 kDa hydrolase (tentatively BAT5) to inhibitor (BAT5 (60 kDa hydrolase))	IC50 (ABHD12)
O=C(NCCCCCCNC(=O)ON=C1CCCCC1)ON=C1CCCCC1 [RHC80267]	10 to 70 µM	inhibited	10 to 70 µM	inhibited	10 to 70 µM	inhibited	10 to 70 µM	inhibited	three	sensitive	–
CCCCCCCCCCC[C@@H](C[C@@H]1OC(=O)[C@H]1CCCCCC)OC(=O)[C@H](CC(C)C)NC=O [THL, tetrahydrolipstatin]	< 0.1 µM	inhibited	–	–	–	–	< 0.1 µM	inhibited	–	sensitive	< 0.1 µM
